According to US10770169B2, “Method of providing a treatment to a subject based on a dynamic pathway map” (THE REGENTS OF THE UNIVERSITY OF CALIFORNIA, priority 2010, dated 2020):
Like-named read-outs stand apart in the source and are kept apart here.

System: panel of 55 breast cancer cell lines
Assay: Cell growth inhibition assay (Cell Titer Glo, 72 h, 9 doses; GI50, TGI, LC50)
Type: cell-based, human
Conditions: Homo sapiens, read-out: GI50 (converted)
[1] = HCC1954, HCC1954 cell line, censored GI50 values
[2] = MDA-MB-134-VI, MDAMB134VI cell line, censored GI50 values
[3] = MDA-MB-175-VII, MDAMB175VII cell line, censored GI50 values
[4] = SUM52PE, SUM52PE cell line, censored GI50 values
[5] = SUM149PT, SUM149PT cell line, censored GI50 values
[6] = SUM1315MO2, SUM1315MO2 cell line, censored GI50 values
[7] = ZR-75-1, ZR751 cell line, censored GI50 values

SMILES: Cn1cnc2c(F)c(Nc3ccc(Br)cc3Cl)c(C(=O)NOCCO)cc21 [AZD6244]
- GI50 (BT-20, cell line BT20): 50.1 µM
- GI50 (BT-474, cell line BT474): 50.1 µM
- GI50 (BT-483, cell line BT483): 50.1 µM
- GI50 (CAMA-1, cell line CAMA1): 50.1 µM
- GI50 (HCC38, cell line HCC38): 50.1 µM
- GI50 (HCC1395, HCC1395 cell line, censored GI50 values): 28.8 µM
- GI50 (HCC1395, cell line HCC1395): 28.8 µM
- GI50 (HCC1419, HCC1419 cell line, censored GI50 values): 17.8 µM
- GI50 (HCC1419, cell line HCC1419): 17.8 µM
- GI50 (HCC1428, cell line HCC1428): 50.1 µM
- GI50 (HCC1500, cell line HCC1500): 50.1 µM
- GI50 (HCC1806, cell line HCC1806): 50.1 µM
- GI50 (HCC1937, cell line HCC1937): 50.1 µM
- GI50 [1]: 1.45 µM
- GI50 (HCC1954, cell line HCC1954): 1.45 µM
- GI50 (MCF7, cell line MCF7): 50.1 µM
- GI50 [2]: 1.17 µM
- GI50 [3]: 2.57 µM
- GI50 (MDA-MB-231, cell line MDAMB231): 50.1 µM
- GI50 (MDA-MB-361, cell line MDAMB361): 50.1 µM
- GI50 (MDA-MB-415, cell line MDAMB415): 50.1 µM
- GI50 (MDA-MB-436, cell line MDAMB436): 50.1 µM
- GI50 (MDA-MB-453, cell line MDAMB453): 50.1 µM
- GI50 (MDA-MB-468, cell line MDAMB468): 50.1 µM
- GI50 (SK-BR-3, cell line SKBR3): 50.1 µM
- GI50 [4]: 9.77 µM
- GI50 (SUM52PE, cell line SUM52PE): 9.77 µM
- GI50 [5]: 0.525 µM
- GI50 (SUM149PT, cell line SUM149PT): 0.525 µM
- GI50 (SUM185PE, cell line SUM185PE): 50.1 µM
- GI50 [6]: 7.59 µM
- GI50 (T47D, cell line T47D): 50.1 µM
- GI50 [7]: 6.17 µM
- GI50 (ZR-75-1, cell line ZR751): 6.17 µM
- GI50 (ZR-75B, cell line ZR75B): 50.1 µM
- GI50 (cell line HCC2185): 50.1 µM
- GI50 (cell line MDAMB134V): 1.17 µM
- GI50 (cell line MDAMB175V): 2.57 µM
- GI50 (cell line SUM1315MO): 7.59 µM

SMILES: Cn1c(=O)n(-c2ccc(C(C)(C)C#N)cc2)c2c3cc(-c4cnc5ccccc5c4)ccc3ncc21 [BEZ235]
- GI50 (AU565, AU565 cell line, censored GI50 values): 0.257 µM
- GI50 (AU565, cell line AU565): 0.257 µM
- GI50 (BT-20, BT20 cell line, censored GI50 values): 3.8 µM
- GI50 (BT-20, cell line BT20): 3.8 µM
- GI50 (BT-474, BT474 cell line, censored GI50 values): 0.347 µM
- GI50 (BT-474, cell line BT474): 0.347 µM
- GI50 (BT-483, BT483 cell line, censored GI50 values): 11.2 µM
- GI50 (BT-483, cell line BT483): 11.2 µM
- GI50 (CAMA-1, CAMA1 cell line, censored GI50 values): 16.6 µM
- GI50 (CAMA-1, cell line CAMA1): 16.6 µM
- GI50 (HCC38, HCC38 cell line, censored GI50 values): 0.49 µM
- GI50 (HCC38, cell line HCC38): 0.49 µM
- GI50 (HCC70, HCC70 cell line, censored GI50 values): 0.158 µM
- GI50 (HCC70, cell line HCC70): 0.158 µM
- GI50 (HCC1187, cell line HCC1187): 33.1 µM
- GI50 (HCC1428, HCC1428 cell line, censored GI50 values): 17 µM
- GI50 (HCC1428, cell line HCC1428): 17 µM
- GI50 [1]: 0.0525 µM
- GI50 (HCC1954, cell line HCC1954): 0.0525 µM
- GI50 (HCC2185 cell line, censored GI50 values): 0.263 µM
- GI50 (HCC3153 cell line, censored GI50 values): 0.646 µM
- GI50 (MCF7, MCF7 cell line, censored GI50 values): 0.589 µM
- GI50 (MCF7, cell line MCF7): 0.589 µM
- GI50 [2]: 1 µM
- GI50 [3]: 1.15 µM
- GI50 (MDA-MB-361, MDAMB361 cell line, censored GI50 values): 0.813 µM
- GI50 (MDA-MB-361, cell line MDAMB361): 0.813 µM
- GI50 (MDA-MB-415, MDAMB415 cell line, censored GI50 values): 0.263 µM
- GI50 (MDA-MB-415, cell line MDAMB415): 0.263 µM
- GI50 (MDA-MB-453, MDAMB453 cell line, censored GI50 values): 0.132 µM
- GI50 (MDA-MB-453, cell line MDAMB453): 0.132 µM
- GI50 (MDA-MB-468, cell line MDAMB468): 33.1 µM
- GI50 (SK-BR-3, SKBR3 cell line, censored GI50 values): 0.589 µM
- GI50 (SK-BR-3, cell line SKBR3): 0.589 µM
- GI50 [4]: 17 µM
- GI50 (SUM52PE, cell line SUM52PE): 17 µM
- GI50 [5]: 0.269 µM
- GI50 (SUM149PT, cell line SUM149PT): 0.269 µM
- GI50 (SUM185PE, SUM185PE cell line, censored GI50 values): 15.1 µM
- GI50 (SUM185PE, cell line SUM185PE): 15.1 µM
- GI50 [6]: 0.224 µM
- GI50 (SUM-159-PT, SUM159PT cell line, censored GI50 values): 0.0363 µM
- GI50 (SUM-159-PT, cell line SUM159PT): 0.0363 µM
- GI50 (T47D, T47D cell line, censored GI50 values): 0.282 µM
- GI50 (T47D, cell line T47D): 0.282 µM
- GI50 (UACC-812, UACC812 cell line, censored GI50 values): 16.6 µM
- GI50 (UACC-812, cell line UACC812): 16.6 µM
- GI50 [7]: 16.6 µM
- GI50 (ZR-75-1, cell line ZR751): 16.6 µM
- GI50 (ZR-75B, ZR75B cell line, censored GI50 values): 0.141 µM
- GI50 (ZR-75B, cell line ZR75B): 0.141 µM
- GI50 (cell line HCC2185): 0.263 µM
- GI50 (cell line HCC3153): 0.646 µM
- GI50 (cell line MDAMB134V): 1 µM
- GI50 (cell line MDAMB175V): 1.15 µM
- GI50 (cell line SUM1315MO): 0.224 µM
